# From PMC5011342, “A high throughput drug screening assay to identify compounds that promote oligodendrocyte differentiation using acutely dissociated and purified oligodendrocyte precursor cells” (BMC Research Notes, 2016)
# Several values for one entry are separate records, joined by “and”; a condition that tells them apart may be missing. Identical values can stand only once. Like-named read-outs stand apart in the source and are kept apart here.
# Legend:
# [1] = tested on: acutely dissociated and purified rat OPCs; experiment: Acute OL differentiation assay (MBP expression/cell, immunofluorescent image quantification); format: cell-based
# Outline: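 Oligodendrocyte precursor cells were enriched from P6-P7 Sprague–Dawley rat brains by immunopanning (RAN-2 and GalC depletion, O4 selection), plated at 5000 cells/well in serum-free, mitogen-free differentiation media on PDL/laminin 96-well view plates, centrifuged at 200×g, and pre-incubated 1–2 h before test compounds were added in quadruplicate. On DIV4, cells were fixed, stained for MBP and DAPI, imaged automatically, and MBP expression per cell was quantified.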
# [2] = tested on: expanded OPCs; experiment: cells; details: for viability at 1 µM / viability at 10 µM / viability at 0.1 µM: Rattus norvegicus, 72 h
# Outline: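 Expanded OPCs seeded at 10,000 cells/well in differentiation media, then exposed to NCC library compounds at 10, 1 and 0.1 µM (quadruplicate, 0.1% DMSO) for three days. Viability read as alamarBlue fluorescence (560/590 nm) after 4 h at 37 °C; tunicamycin 5 ng/ml served as toxicity control.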
# [3] = Rattus norvegicus, test compound at 2 uM, NCC library screen, sheet "All OLga data", relative to quetiapine, read-out: 2 uM (% Quet)
# [4] = Rattus norvegicus, test compound at 10 uM, NCC library screen, sheet "All OLga data", relative to quetiapine, read-out: 10 uM (% Quet)
# [5] = read-out: 0.1 µM (% DMSO), alamarBlue viability, NCC library compound at 0.1 µM, sheet "All Tox data"
# [6] = read-out: 1 µM (% DMSO), alamarBlue viability, NCC library compound at 1 µM, sheet "All Tox data"
# [7] = read-out: 10 µM (% DMSO), alamarBlue viability, NCC library compound at 10 µM, sheet "All Tox data"
# [8] = Rattus norvegicus, 2 uM test compound, relative to quetiapine, sheet "All OLga data", read-out: OL differentiation, 2 uM (% Quet)
# [9] = Rattus norvegicus, 10 uM test compound, relative to quetiapine, sheet "All OLga data", read-out: OL differentiation, 10 uM (% Quet)
# [10] = read-out: 0.1 µM (% DMSO), alamarBlue viability of expanded OPCs, compound at 0.1 µM, sheet All Tox data
# [11] = read-out: 1 µM (% DMSO), alamarBlue viability of expanded OPCs, compound at 1 µM, sheet All Tox data
# [12] = read-out: 10 µM (% DMSO), alamarBlue viability of expanded OPCs, compound at 10 µM, sheet All Tox data
# [13] = alamarBlue viability of expanded OPCs, compound at 0.1 µM, relative to DMSO control
# [14] = alamarBlue viability of expanded OPCs, compound at 1 µM, relative to DMSO control
# [15] = alamarBlue viability of expanded OPCs, compound at 10 µM, relative to DMSO control
# [16] = Rattus norvegicus, 0.4 uM test compound, relative to quetiapine, sheet "All OLga data", read-out: OL differentiation, 0.4 uM (% Quet)
smiles,measurement,setting,value
CNCC[C@H](Oc1cccc2ccccc12)c1cccs1 [Duloxetine],activation at 0.08 µM,"[1]; Rattus norvegicus, read-out: 0.08 uM (% Quet)",-5.1%
same,activation at 0.4 µM,"[1]; Rattus norvegicus, read-out: 0.4 uM (% Quet)",-12.9%
same,activation at 0.08 µM,"[1]; Rattus norvegicus, read-out: OL differentiation, 0.08 uM (% Quet)",18.3%
same,activation at 0.4 µM,"[1]; Rattus norvegicus, read-out: OL differentiation, 0.4 uM (% Quet)",-7.6%
same,0.1 µM (% DMSO),[2],56.7 % DMSO and 82.6 % DMSO
same,1 µM (% DMSO),[2],45.5 % DMSO
same,10 µM (% DMSO),[2],12.6 % DMSO
same,viability at 1 µM,[2]; read-out: 1 µM (% DMSO),30.3%
same,viability at 10 µM,[2]; read-out: 10 µM (% DMSO),9.7%
CN1C2CCCC1CC(NC(=O)c1nn(C)c3ccccc13)C2 (centres unmarked) [Granisetron],activation at 2 µM,[1]; [3],-25.3%
same,activation at 10 µM,[1]; [4],-23.7%
same,viability at 0.1 µM,[2]; [5],84.1%
same,viability at 1 µM,[2]; [6],87.1%
same,viability at 10 µM,[2]; [7],72.4%
"CCCOc1ccc(C(=O)OCCN(CC)CC)cc1N [Proxymetacaine, reference compound]",activation at 2 µM,[1]; [3],75.8%
same,activation at 10 µM,[1]; [4],97.5%
same,EC50,"[1]; Rattus norvegicus, average EC50 for induction of OL differentiation from independent biological replicates, eight concentrations",1000 nM
same,"hit in OL differentiation assay, MRF-TMC",[1]; ● = confirmed hit in this paper's assay,●
same,viability at 0.1 µM,[2]; [5],128%
same,viability at 1 µM,[2]; [6],179%
same,viability at 10 µM,[2]; [7],163%
Oc1ccc(C2CNCCc3c2cc(O)c(O)c3Cl)cc1 (centres unmarked) [Fenoldopam],activation at 2 µM,[1]; [8],-32.3%
same,activation at 10 µM,[1]; [9],-79.8%
same,viability at 0.1 µM,[2]; [10],106%
same,viability at 1 µM,[2]; [11],97.4%
same,viability at 10 µM,[2]; [12],75.9%
CC(CN1c2ccccc2Sc2ccccc21)N(C)C (centres unmarked) [Promethazine],activation at 0.08 µM,"[1]; Rattus norvegicus, test compound at 0.08 uM, NCC library screen, sheet ""All OLga data"", relative to quetiapine, read-out: 0.08 uM (% Quet)",-26.4%
same,activation at 0.4 µM,"[1]; Rattus norvegicus, test compound at 0.4 uM, NCC library screen, sheet ""All OLga data"", relative to quetiapine, read-out: 0.4 uM (% Quet)",-33.6%
same,0.1 µM (% DMSO),[2]; [13],68.4 % DMSO
same,1 µM (% DMSO),[2]; [14],33.2 % DMSO
same,10 µM (% DMSO),[2]; [15],19.9 % DMSO
COc1cc(-c2ccc(=O)[nH]n2)ccc1OC(F)F [Zardaverine],activation at 2 µM,[1]; [8],4.1%
same,activation at 10 µM,[1]; [9],-36.7%
same,viability at 0.1 µM,[2]; [10],86.5%
same,viability at 1 µM,[2]; [11],93.5%
same,viability at 10 µM,[2]; [12],67.4%
Cc1ccc(S(=O)(=O)NC(=O)NN2CCCCCC2)cc1 [Tolazamide],activation at 2 µM,[1]; [3],-14.2%
same,activation at 10 µM,[1]; [4],-2%
same,0.1 µM (% DMSO),[2]; [13],100.3 % DMSO
same,1 µM (% DMSO),[2]; [14],95.8 % DMSO
same,10 µM (% DMSO),[2]; [15],99.9 % DMSO
COc1cccc(C2(O)CCCCC2CN(C)C)c1 (centres unmarked) [Tramadol],activation at 2 µM,[1]; [3],-1.7%
same,activation at 10 µM,[1]; [4],-9.7%
same,viability at 0.1 µM,[2]; [5],100%
same,viability at 1 µM,[2]; [6],107%
same,viability at 10 µM,[2]; [7],96.7%
Cl.NC1CCN(c2cccc(Cl)n2)CC1 [SR57227A],"OL differentiation, 2 uM (% Quet)","[1]; 2 uM test compound, relative to quetiapine, sheet ""All OLga data""",13.8 % Quet
same,"OL differentiation, 10 uM (% Quet)","[1]; 10 uM test compound, relative to quetiapine, sheet ""All OLga data""",30.8 % Quet
same,0.1 µM (% DMSO),"[2]; alamarBlue viability of expanded OPCs, compound at 0.1 µM, sheet All Tox data",85.7 % DMSO
same,1 µM (% DMSO),"[2]; alamarBlue viability of expanded OPCs, compound at 1 µM, sheet All Tox data",88.3 % DMSO
same,10 µM (% DMSO),"[2]; alamarBlue viability of expanded OPCs, compound at 10 µM, sheet All Tox data",77.5 % DMSO
CN(C)CCCSc1ccccc1NC(=O)/C=C/c1ccccc1 [Cinanserin],activation at 2 µM,[1]; [8],64.2%
same,activation at 10 µM,[1]; [9],63.5%
same,viability at 0.1 µM,[2]; [10],80.3%
same,viability at 1 µM,[2]; [11],84.3%
same,viability at 10 µM,[2]; [12],74.7%
COc1ccccc1OCCNCC(O)COc1cccc2[nH]c3ccccc3c12 (centres unmarked) [Carvedilol],activation at 0.4 µM,[1]; [16],-16.1%
same,activation at 2 µM,[1]; [8],-95.9%
same,viability at 0.1 µM,[2]; [10],101%
same,viability at 1 µM,[2]; [11],54.5%
same,viability at 10 µM,[2]; [12],12%
NS(=O)(=O)Cc1noc2ccccc12 [Zonisamide],activation at 2 µM,"[1]; Rattus norvegicus, test compound at 2 uM, MBP expression relative to quetiapine, NCC library screen, sheet ""All OLga data"", read-out: 2 uM (% Quet)",5.9%
same,activation at 10 µM,"[1]; Rattus norvegicus, test compound at 10 uM, MBP expression relative to quetiapine, NCC library screen, sheet ""All OLga data"", read-out: 10 uM (% Quet)",4.3%
same,0.1 µM (% DMSO),[2]; [13],89.3 % DMSO
same,1 µM (% DMSO),[2]; [14],92.8 % DMSO
same,10 µM (% DMSO),[2]; [15],87.8 % DMSO
CN1CCN(C2=Nc3ccccc3Oc3ccc(Cl)cc32)CC1 [Loxapine],activation at 0.4 µM,[1]; [16],-5.9%
same,activation at 2 µM,[1]; [8],-18.5%
same,viability at 0.1 µM,[2]; [10],85.7%
same,viability at 1 µM,[2]; [11],71.4%
same,viability at 10 µM,[2]; [12],29%
